Assay [1] deals with T1, wild type androgen receptor (Homo sapiens, UniProt P10275).
T1 construct: expressed in transfected cells; host or cells: CV-1 (green monkey kidney cells lacking an androgen receptor)
T1 sequence (P10275 1-920): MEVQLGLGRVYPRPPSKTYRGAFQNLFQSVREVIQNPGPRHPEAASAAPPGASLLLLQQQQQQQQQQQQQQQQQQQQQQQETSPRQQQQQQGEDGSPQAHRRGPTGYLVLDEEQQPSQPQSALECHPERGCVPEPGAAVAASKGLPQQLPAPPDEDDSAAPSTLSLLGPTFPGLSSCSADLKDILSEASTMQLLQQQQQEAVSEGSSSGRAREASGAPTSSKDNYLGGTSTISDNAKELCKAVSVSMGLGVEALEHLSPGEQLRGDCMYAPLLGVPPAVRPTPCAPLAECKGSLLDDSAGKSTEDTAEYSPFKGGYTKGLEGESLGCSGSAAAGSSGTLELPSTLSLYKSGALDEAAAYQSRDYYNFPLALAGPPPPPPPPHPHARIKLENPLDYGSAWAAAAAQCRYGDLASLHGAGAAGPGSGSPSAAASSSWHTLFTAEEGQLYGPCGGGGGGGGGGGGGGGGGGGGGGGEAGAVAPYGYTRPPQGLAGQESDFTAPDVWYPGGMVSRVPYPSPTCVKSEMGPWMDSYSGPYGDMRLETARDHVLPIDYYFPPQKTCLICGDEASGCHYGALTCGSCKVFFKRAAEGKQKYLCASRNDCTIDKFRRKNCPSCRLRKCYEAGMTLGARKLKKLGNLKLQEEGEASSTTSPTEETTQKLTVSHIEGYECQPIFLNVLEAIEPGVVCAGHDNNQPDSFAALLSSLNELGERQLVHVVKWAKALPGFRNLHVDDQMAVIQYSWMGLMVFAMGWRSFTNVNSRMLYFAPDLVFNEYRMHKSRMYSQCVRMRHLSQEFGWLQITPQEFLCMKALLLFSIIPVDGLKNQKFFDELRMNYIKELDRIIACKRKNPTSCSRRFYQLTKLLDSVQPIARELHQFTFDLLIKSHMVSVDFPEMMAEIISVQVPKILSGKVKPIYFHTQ
Briefly: Androgen receptor transactivation assay in CV-1 cells (MMTV-luciferase reporter). It is filed as cell-based. The following applies: CV-1 cells transfected with wild type AR, DHT 1 nM, JC9 0 uM to 7.5 uM. The text has this: Prostate cancer cells, non-prostate tumor cells, and normal cells can be used in this transient transfection assay, which measures transactivation of the androgen receptor (AR) and can be used to detect a reduction of AR activity caused by AR degradation. In the provided non-limiting example, CV-1 (green monkey kidney cells lacking an androgen receptor) and LNCaP cells (prostate cancer cells containing an endogenous mutant AR), were transfected with a plasmid carrying an androgen response element (ARE) and a reporter gene.
Both the CV-1 and LNCaP cells (obtained from ATCC, Manassas, Va.) were maintained in […] medium supplemented with penicillin (25 units/millilter), streptomycin (25 micrograms/milliliter), and 10% heat-inactivated fetal bovine serum (FBS). Cells were plated in 35-millimeter dishes at a concentration of 1-2×10^5cells/well and cultured at 37 degrees Celsius in an incubator under a 5% carbon dioxide atmosphere. […] The cells were lysed, and luciferase activity of the lysate was measured with the Dual-Luciferase Reporter Assay System (Promega, Madison, Wis.). Data were expressed as relative luciferase activity normalized to the internal luciferase positive control. […]
For orientation: A reporter such as luciferase makes a cellular process visible.

Another assay relates to hsp70. Briefly: Western blot of LNCaP cell lysates, hsp70. The following applies: 1 or 2 micromolar, 24 hours, presence or absence of DHT. It is filed as cell-based, human. Here is the method:
(§1) Human prostate cancer LNCaP cells and T47D cells were plated at a density of 7×10^5 cells per 60 millimeter tissue culture dish in […] (RPMI) medium containing 10% FBS. The medium was changed to RPMI or DME medium containing 10% charcoal-stripped serum 24 hours later to deplete cellular androgens or estrogens. After another 24 hours, treatment with the test compounds began. The test dose of JC15 was 1 or 2 micromolar and the test does of JC9 was 1, 5 and 10 micromolar. LNCap cells also received dihydrotestosterone (DHT) (3 nanomolar). Control cells received a corresponding amount of the vehicle, dimethylsulfoxide (DMSO) (<0.04%) for an equivalent exposure time. Cells were incubated with JC15 for 24 or 48 hours, and were lysed in 250 microliters of 1×SDS/PAGE loading buffer. Approximately 40 micrograms of total cellular protein was loaded in each lane of a pre-cast gel (NuPAGE, Invitrogen). Protein separation and transfer were performed following the manufacturer's instructions.
(§2) For the prostate cell lysates, androgen receptor (AR) protein was visualized by incubating the resultant membranes with an anti-AR antibody (BD-PharMingen), followed by chemiluminescence detection (ECL Plus, Amersham). […] The resultant protein signals were quantified using densitometry and NIH ImageJ software.
(In western blotting, separated proteins are transferred to a membrane and probed.)

A further assay addresses T2, ER beta (Homo sapiens, UniProt Q92731).
T2 construct: endogenous in cells; host or cells: LNCaP
Briefly: Western blot of LNCaP cell lysates, ER beta. Particulars: 1 or 2 micromolar, 24 hours, presence or absence of DHT. It is filed as cell-based. The method, then: as §1, §2

T2 sequence (Q92731 whole entry): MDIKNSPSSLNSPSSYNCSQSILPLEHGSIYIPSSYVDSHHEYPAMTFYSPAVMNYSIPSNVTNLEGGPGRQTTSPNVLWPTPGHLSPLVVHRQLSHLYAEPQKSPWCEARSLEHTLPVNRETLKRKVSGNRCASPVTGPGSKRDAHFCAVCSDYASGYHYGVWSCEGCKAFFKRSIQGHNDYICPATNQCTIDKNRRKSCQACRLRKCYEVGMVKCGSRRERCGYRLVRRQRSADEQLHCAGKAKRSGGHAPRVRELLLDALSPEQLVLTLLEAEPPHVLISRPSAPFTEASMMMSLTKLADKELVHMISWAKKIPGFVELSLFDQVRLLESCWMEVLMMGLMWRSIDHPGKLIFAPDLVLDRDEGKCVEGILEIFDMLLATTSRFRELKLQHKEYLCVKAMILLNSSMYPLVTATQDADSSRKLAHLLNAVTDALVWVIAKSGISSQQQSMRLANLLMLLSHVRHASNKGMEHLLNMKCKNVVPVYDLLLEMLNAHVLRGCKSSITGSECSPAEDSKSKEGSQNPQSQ

For `COc1ccc(C=CC(=O)C=C(O)C=Cc2ccc(OC)c(OC)c2)cc1OC` [JC9, 5-hydroxy-1,7-bis(3,4-dimethoxyphenyl)-1,4,6-heptatrien-3-one], the “DHT-induced androgen receptor transcriptional activation (relative luciferase activity)” value in assay [1] is recorded as “capable of inhibiting DHT-induced androgen receptor transcriptional activation in a dose dependent manner”.

Turning to `CCOC(=O)CCC(C(=O)C=Cc1ccc(O)c(OC)c1)C(=O)C=Cc1ccc(O)c(OC)c1` (stereo not drawn) [JC15, 7-(4-hydroxy-3-methoxyphenyl)-4-[3-(4-hydroxy-3-methoxyphenyl)acryloyl]-5-oxo-hept-6-enoic acid ethyl ester], in the assay on hsp70, the “cellular concentration of hsp70” value was “did not substantially affect”. Moreover, the “cellular concentration of ER beta” value at ER beta is given as “did not substantially affect”.

These data come from patent US20060084704A1, “Methods and compositions for enhancing degradation of nuclear receptor transcription factors and uses thereof” (priority 2004, published 2006).
